Here are results for two compounds from ChEMBL document CHEMBL5465560, “Selectivity Literature for EUbOPEN Chemogenomic Library” (2024).

Test [1] addresses T1, Mitogen-activated protein kinase kinase kinase 5 (Homo sapiens) (UniProt Q99683).
T1 sequence (whole entry): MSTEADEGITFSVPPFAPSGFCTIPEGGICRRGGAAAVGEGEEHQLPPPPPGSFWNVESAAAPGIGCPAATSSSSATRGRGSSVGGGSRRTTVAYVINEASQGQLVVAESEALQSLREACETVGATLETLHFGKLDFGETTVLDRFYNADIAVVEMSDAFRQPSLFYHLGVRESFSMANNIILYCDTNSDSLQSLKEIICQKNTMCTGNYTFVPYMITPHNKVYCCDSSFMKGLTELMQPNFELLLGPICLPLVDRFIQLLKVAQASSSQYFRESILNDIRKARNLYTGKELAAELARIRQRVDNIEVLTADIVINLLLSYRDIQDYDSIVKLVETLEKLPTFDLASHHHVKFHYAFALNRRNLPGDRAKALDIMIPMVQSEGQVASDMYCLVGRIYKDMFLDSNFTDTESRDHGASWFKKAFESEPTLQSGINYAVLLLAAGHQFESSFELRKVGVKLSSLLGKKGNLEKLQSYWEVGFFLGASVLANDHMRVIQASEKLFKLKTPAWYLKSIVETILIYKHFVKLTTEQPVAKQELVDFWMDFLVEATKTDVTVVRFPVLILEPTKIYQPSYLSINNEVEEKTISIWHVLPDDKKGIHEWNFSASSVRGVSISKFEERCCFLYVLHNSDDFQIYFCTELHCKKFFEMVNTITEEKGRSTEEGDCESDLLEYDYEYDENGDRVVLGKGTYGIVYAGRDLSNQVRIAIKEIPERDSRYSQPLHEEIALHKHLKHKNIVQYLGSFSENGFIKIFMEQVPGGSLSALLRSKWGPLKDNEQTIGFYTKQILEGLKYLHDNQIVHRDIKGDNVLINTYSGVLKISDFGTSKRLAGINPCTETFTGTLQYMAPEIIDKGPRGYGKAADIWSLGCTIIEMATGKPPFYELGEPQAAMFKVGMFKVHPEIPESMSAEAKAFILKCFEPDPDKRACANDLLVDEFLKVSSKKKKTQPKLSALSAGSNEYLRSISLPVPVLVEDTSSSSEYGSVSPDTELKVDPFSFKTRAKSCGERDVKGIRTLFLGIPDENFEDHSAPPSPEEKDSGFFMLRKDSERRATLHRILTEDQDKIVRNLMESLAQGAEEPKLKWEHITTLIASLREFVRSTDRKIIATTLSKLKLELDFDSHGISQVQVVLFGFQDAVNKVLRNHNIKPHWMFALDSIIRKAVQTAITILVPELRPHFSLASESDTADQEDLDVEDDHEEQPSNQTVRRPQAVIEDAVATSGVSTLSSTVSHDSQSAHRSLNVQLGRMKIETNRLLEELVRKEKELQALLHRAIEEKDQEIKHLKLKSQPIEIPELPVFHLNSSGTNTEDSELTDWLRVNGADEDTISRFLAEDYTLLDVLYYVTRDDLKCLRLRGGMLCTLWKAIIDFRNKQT
In words: Selectivity interaction (ActivX KiNativ screen (kinase selectivity in THP-1 cell lysates)) EUB0000639a MAP3K5. It counts as subcellular. The note with it: lysate, at 5 µM.

Test [2] deals with T2, Serine/threonine-protein kinase 36 (Homo sapiens) (UniProt Q9NRP7).
T2 sequence (whole entry): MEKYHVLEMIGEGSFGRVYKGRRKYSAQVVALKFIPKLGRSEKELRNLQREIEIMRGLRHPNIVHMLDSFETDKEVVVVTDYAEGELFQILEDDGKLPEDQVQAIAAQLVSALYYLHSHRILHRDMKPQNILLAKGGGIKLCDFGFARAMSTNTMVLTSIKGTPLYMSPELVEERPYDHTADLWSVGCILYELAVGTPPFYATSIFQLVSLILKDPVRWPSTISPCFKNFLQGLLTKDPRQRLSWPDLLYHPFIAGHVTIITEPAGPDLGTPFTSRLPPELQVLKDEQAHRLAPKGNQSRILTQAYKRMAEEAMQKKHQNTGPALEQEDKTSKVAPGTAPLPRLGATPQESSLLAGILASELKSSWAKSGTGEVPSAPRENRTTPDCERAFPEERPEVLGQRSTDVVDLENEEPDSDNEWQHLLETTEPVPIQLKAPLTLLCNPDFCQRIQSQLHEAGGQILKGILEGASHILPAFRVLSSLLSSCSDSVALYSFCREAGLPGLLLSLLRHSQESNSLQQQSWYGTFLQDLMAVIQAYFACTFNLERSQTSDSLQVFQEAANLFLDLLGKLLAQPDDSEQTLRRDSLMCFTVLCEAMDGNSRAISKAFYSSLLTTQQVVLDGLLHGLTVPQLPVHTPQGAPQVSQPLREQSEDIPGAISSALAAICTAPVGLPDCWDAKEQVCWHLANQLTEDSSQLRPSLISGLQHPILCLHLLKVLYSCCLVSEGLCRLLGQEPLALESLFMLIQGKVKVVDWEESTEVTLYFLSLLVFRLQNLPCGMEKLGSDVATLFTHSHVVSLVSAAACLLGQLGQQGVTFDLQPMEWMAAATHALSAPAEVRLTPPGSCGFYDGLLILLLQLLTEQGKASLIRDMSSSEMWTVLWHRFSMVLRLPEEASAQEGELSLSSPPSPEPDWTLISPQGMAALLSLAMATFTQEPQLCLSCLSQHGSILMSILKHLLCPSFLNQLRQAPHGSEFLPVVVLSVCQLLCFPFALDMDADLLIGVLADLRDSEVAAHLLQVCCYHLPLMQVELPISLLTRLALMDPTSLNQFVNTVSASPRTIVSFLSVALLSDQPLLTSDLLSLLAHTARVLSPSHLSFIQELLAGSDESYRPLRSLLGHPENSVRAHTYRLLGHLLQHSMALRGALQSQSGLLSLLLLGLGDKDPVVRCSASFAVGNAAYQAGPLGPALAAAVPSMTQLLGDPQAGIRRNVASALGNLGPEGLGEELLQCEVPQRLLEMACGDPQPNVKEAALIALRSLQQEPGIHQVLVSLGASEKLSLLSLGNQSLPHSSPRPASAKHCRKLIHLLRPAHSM
Put plainly: Selectivity interaction (KinomeScan (DiscoverX)) EUB0000045b STK36.

Consider `CC[C@@H]1[C@H](F)C(=O)N[C@@H]1COc1nccc2cc(C(N)=O)c(OC)cc12` [ZIMLOVISERTIB], for which, in test [1], the % of inhibition was -16.2%.
`C=CC(=O)Nc1cc(-n2c(=O)ccc3cnc4ccc(-c5ccc(NS(C)(=O)=O)cc5)cc4c32)ccc1C`: the % of control in test [2] (at 1 µM) and in test [2] (at 10 µM) was 100% each time.
